Laboratory results published in patent publication US11857560B2, “Pharmaceutical compositions comprising substituted nucleotides and nucleosides for treating viral infections” (priority 2013, dated 2024).
Read-outs that look alike come from different tables or passages of the source.

Experiments:
[1] = Cytotoxicity panel, Huh-7; conditions: human, Huh-7 cells, Cytotoxicity (CC50 uM) Huh-7, Huh-7
[2] = Cytotoxicity panel, HepG2; conditions: human, HepG2 cells
Cytotoxicity panel, CEM = conditions: human, CEM cells, Cytotoxicity (CC50 uM) CEM
[3] = Cellular toxicity in parallel with HCV replicon assay (XTT); conditions: human
RVFV = test: microbe, parasite or virus in culture; format: cell-based; conditions: Rift Valley fever virus, read-out: RVFV EC50
Measles = test: Antiviral activity, Measles; format: cell-based, measles virus; conditions: Measles morbillivirus
Influenza A H3N2 = test: Antiviral activity, Influenza A H3N2; format: cell-based; conditions: Influenza A virus, H3N2; read-out: Influenza A H3N2 EC50
[4] = system: Influenza A H5N1 (low path); test: microbe, parasite or virus in culture; format: cell-based; conditions: H5N1, read-out: Influenza A H5N1 (low path) EC50
Dengue Virus = test: Antiviral activity, Dengue Virus; format: cell-based
West Nile Virus = test: Antiviral activity, West Nile Virus; format: cell-based; conditions: read-out: West Nile Virus EC50
SARS = test: microbe, parasite or virus in culture; conditions: Severe acute respiratory syndrome coronavirus, read-out: SARS EC50
Influenza A H1N1 = test: Antiviral activity, Influenza A H1N1; format: cell-based; conditions: Influenza A virus, H1N1; read-out: Influenza A H1N1 EC50
RSV = test: Antiviral activity, RSV; format: cell-based; conditions: human respiratory syncytial virus
CHIK Virus = test: Antiviral activity, CHIK Virus; format: cell-based; conditions: Chikungunya virus, read-out: CHIK Virus EC50
Influenza B = test: Antiviral activity, Influenza B; format: cell-based
Tacaribe Virus = test: microbe, parasite or virus in culture; format: cell-based; conditions: Mammarenavirus tacaribeense, read-out: Tacaribe Virus EC50
VEEV = test: microbe, parasite or virus in culture; format: cell-based; conditions: Venezuelan equine encephalitis virus, read-out: VEEV EC50
[5] = Cytotoxicity in GT1b replicon cells; format: cell-based
[6] = Toxicity in Huh-7 cells (Dengue assay); conditions: human, Huh-7 cells
Dengue Type 2 = test: Anti-Dengue virus cytoprotection assay, Huh-7 cells; conditions: Huh-7, read-out: Dengue Type 2 Huh-7 Cells (EC50 uM)
Cytotoxicity panel, H9c = format: cell-based; conditions: rat, H9c cells
[7] = Cytotoxicity panel, BxPC3; conditions: human, BxPC3 cells
Huh-7 = test: Cytotoxicity panel, Huh-7; conditions: read-out: Cytotoxicity (CC50 uM) Huh-7; Huh-7
[8] = Influenza B virus; read-out: Influenza B EC50

Question: For `CC(C)OC(=O)[C@H](C)NP(=O)(OC[C@H]1O[C@@H](n2ccc(=S)[nH]c2=O)[C@](C)(O)C1O)Oc1ccccc1` (some centres unmarked) [ENUC-01920-1], which CC50 [1] is on record?
Answer: The CC50 was over 400 µM.

Question: What about the CC50 [2] of the same compound?
Answer: Its CC50 is over 400 µM.

Question: Which results are given for `C[C@H](NP(=O)(O)OC[C@H]1O[C@@H](n2ccc(=O)[nH]c2=S)[C@](C)(O)C1O)C(=O)O` (some centres unmarked) [ENUC-01997-1]?
Answer: CC50 (Cytotoxicity panel, CEM): > 400 µM; CC50 [1]: > 400 µM; CC50 at 72 h [3]: > 100 µM; CC50 [2]: > 400 µM

Question: For `Nc1nc(=O)n([C@@H]2O[C@H](CO)C(O)[C@@H]2F)cc1CO` (some centres unmarked) [EFVX-01856], which EC50 (RVFV) is on record?
Answer: Its EC50 is over 100 µg/mL.

Question: What about the EC50 (Measles) of the same compound?
Answer: The EC50 was over 100 µM.

Question: And the EC50 (Influenza A H3N2)?
Answer: Its EC50 is over 100 µM.

Question: And the EC50 [4]?
Answer: Its EC50 is over 100 µM.

Question: And the EC50 (Dengue Virus)?
Answer: The EC50 was over 100 µg/mL.

Question: What about the EC50 (West Nile Virus) of the same compound?
Answer: The EC50 was over 100 µg/mL.

Question: And the EC50 (SARS)?
Answer: Its EC50 is over 100 µM.

Question: And the EC50 (Influenza A H1N1)?
Answer: The EC50 was over 100 µM.

Question: And the EC50 (RSV)?
Answer: Its EC50 is over 100 µM.

Question: And the EC50 (CHIK Virus)?
Answer: The EC50 was over 100 µg/mL.

Question: And the EC50 (Influenza B; [8])?
Answer: Its EC50 is over 100 µM.

Question: What about the EC50 (Tacaribe Virus) of the same compound?
Answer: Its EC50 is over 100 µg/mL.

Question: And the EC50 (VEEV)?
Answer: The EC50 was over 100 µg/mL.

Question: With `CC(C)OC(=O)[C@H](C)NP(=O)(OC[C@H]1O[C@@H](n2ccc(=O)[nH]c2=S)[C@@H](O)C1O)Oc1ccccc1` (some centres unmarked) [ENUC-02072-1] as the compound, how does the CC50 (Cytotoxicity panel, CEM) read?
Answer: Its CC50 is over 400 µM.

Question: What about the CC50 [1] of the same compound?
Answer: The CC50 was over 400 µM.

Question: And the CC50 [2]?
Answer: Its CC50 is over 400 µM.

Question: With `O=c1[nH]c(=S)ccn1[C@@H]1O[C@H](CO)C(O)[C@@H]1O` (some centres unmarked) [ENUC-01893-1] as the compound, how does the CC50 at 72 h [3] read?
Answer: The CC50 at 72 h was 45.7 µM.

Question: Which CC50 [5] does the source give for `CC(C)OC(=O)[C@H](C)N[P@](=O)(OC[C@H]1O[C@@H](n2ccc(=O)[nH]c2=O)[C@](C)(F)C1O)Oc1ccccc1` (some centres unmarked) [GS-7977, reference compound] here?
Answer: The CC50 was over 2 µM.

Question: For `CC(C)OC(=O)[C@H](C)N[P@@](=O)(OC[C@H]1O[C@@H](n2ccc(=O)[nH]c2=S)[C@](C)(O)C1O)Oc1ccccc1` (some centres unmarked) [ENUC-02024-1], which CC50 (Cytotoxicity panel, CEM) is on record?
Answer: The CC50 was over 400 µM.

Question: What about the CC50 [1] of the same compound?
Answer: Its CC50 is over 400 µM.

Question: What about the CC50 [2] of the same compound?
Answer: The CC50 was over 400 µM.

Question: With `CC(C)OP1(=O)OC[C@H]2O[C@@H](n3ccc(=O)[nH]c3=O)C(F)[C@H]2O1` (some centres unmarked) [EFVX- 01841] as the compound, how does the EC50 (Influenza A H3N2) read?
Answer: Its EC50 is over 100 µM.

Question: What about the EC50 [4] of the same compound?
Answer: Its EC50 is over 100 µM.

Question: And the EC50 (SARS)?
Answer: The EC50 was 70 µM.

Question: And the EC50 (Influenza A H1N1)?
Answer: The EC50 was over 100 µM.

Question: And the EC50 (RSV)?
Answer: Its EC50 is over 100 µM.

Question: And the EC50 (Influenza B; Influenza B virus, read-out: Influenza B EC50)?
Answer: The EC50 was over 100 µM.

Question: What about the CC50 (in vitro) of the same compound?
Answer: Its CC50 is over 89 µM.

Question: For `CC(C)OC(=O)[C@H](C)NP(=O)(OC[C@H]1O[C@@H](n2ccc(=O)[nH]c2=S)[C@@H](C)C1O)Oc1ccccc1` (some centres unmarked) [ENUC-02078-1], which CC50 [6] is on record?
Answer: Its CC50 is over 100 µM.

Question: And the CC50 (Cytotoxicity panel, CEM)?
Answer: The CC50 was 259 µM.

Question: And the CC50 [1]?
Answer: Its CC50 is over 400 µM.

Question: And the CC50 [2]?
Answer: Its CC50 is over 400 µM.

Question: And the EC50 (Dengue Type 2)?
Answer: Its EC50 is 6.07 µM.

Question: Which CC50 (Cytotoxicity panel, H9c) does the source give for `CC(C)OC(=O)[C@H](C)NP(=O)(OC[C@H]1O[C@@H](n2ccc(=O)[nH]c2=S)[C@](C)(O)C1O)Oc1ccccc1` (some centres unmarked) [ENUC-01911-1] here?
Answer: Its CC50 is over 200 µM.

Question: And the CC50 [1]?
Answer: Its CC50 is over 400 µM.

Question: What about the CC50 [7] of the same compound?
Answer: The CC50 was over 300 µM.

Question: What about the CC50 [2] of the same compound?
Answer: Its CC50 is over 400 µM.

Question: Which EC50 (RVFV) does the source give for `Cc1cn([C@@H]2O[C@H](CO)C(O)[C@@H]2F)c(=O)nc1N` (some centres unmarked) [EFVX-01855] here?
Answer: Its EC50 is over 100 µg/mL.

Question: And the EC50 (Measles)?
Answer: The EC50 was over 100 µM.

Question: And the EC50 (Influenza A H3N2)?
Answer: Its EC50 is over 100 µM.

Question: And the EC50 [4]?
Answer: The EC50 was over 100 µM.

Question: What about the EC50 (Dengue Virus) of the same compound?
Answer: The EC50 was over 100 µg/mL.

Question: And the EC50 (West Nile Virus)?
Answer: Its EC50 is over 100 µg/mL.

Question: What about the EC50 (SARS) of the same compound?
Answer: Its EC50 is over 100 µM.

Question: And the EC50 (Influenza A H1N1)?
Answer: Its EC50 is over 100 µM.

Question: What about the EC50 (RSV) of the same compound?
Answer: The EC50 was over 100 µM.

Question: What about the EC50 (CHIK Virus) of the same compound?
Answer: Its EC50 is over 100 µg/mL.

Question: And the EC50 (Influenza B; [8])?
Answer: The EC50 was over 100 µM.

Question: What about the EC50 (Tacaribe Virus) of the same compound?
Answer: Its EC50 is over 100 µg/mL.

Question: What about the EC50 (VEEV) of the same compound?
Answer: The EC50 was over 100 µg/mL.

Question: With `CC(C)OC(=O)[C@H](C)NP(=O)(OC[C@H]1O[C@@H](n2ccc(=O)[nH]c2=S)[C@@H](O)C1O)Oc1ccccc1` (some centres unmarked) [ENUC-02071-2] as the compound, how does the CC50 at 72 h [3] read?
Answer: Its CC50 at 72 h is over 100 µM.

Question: What does the source list for `CC(C)OC(=O)[C@H](C)NP(=O)(OC[C@H]1O[C@@H](n2ccc(=O)[nH]c2=S)[C@](C)(O)C1O)Oc1ccccc1` (some centres unmarked) [ENUC-01911-2]?
Answer: CC50 (Huh-7): > 400 µM; CC50 [5]: > 10 µM

Question: Which CC50 [1] does the source give for `C[C@@]1(O)C(O)[C@@H](CO)O[C@H]1n1ccc(=O)[nH]c1=S` (some centres unmarked) [ENUC-01850-1] here?
Answer: The CC50 was over 100 µM.

Question: What about the CC50 [7] of the same compound?
Answer: The CC50 was over 100 µM.

Question: What about the CC50 [2] of the same compound?
Answer: The CC50 was over 400 µM.

Question: Which CC50 (Cytotoxicity panel, CEM) does the source give for `C[C@@]1(F)C(O)[C@@H](CO)O[C@H]1n1ccc(=S)[nH]c1=O` (some centres unmarked) [ENUC-01946-1] here?
Answer: The CC50 was over 400 µM.

Question: What about the CC50 [1] of the same compound?
Answer: The CC50 was over 400 µM.

Question: What about the CC50 [2] of the same compound?
Answer: Its CC50 is over 400 µM.
